Values belong to the compound of their own block, whether it stands above or below them.
Tests used:
[1] = molecular target: E3 ubiquitin-protein ligase XIAP (Homo sapiens, UniProt P98170)
Description: Binding affinity to N-terminal 6xHis-tagged human cloned XIAP BIR3 domain expressed in Escherichia coli BL21 (DE3) by fluorescence polarization-based competitive binding assay

MDA-MB-231 [2] = test: Induction of apoptosis in human MDA-MB-231 cells assessed as late apoptotic cells at 100 nM after 48 hrs using annexin V-propidium iodide staining by flow cytometry; type: functional
MDA-MB-231 [3] = test: Induction of apoptosis in human MDA-MB-231 cells assessed as early apoptotic cells at 1 uM after 48 hrs using annexin V-propidium iodide staining by flow cytometry; type: functional
MDA-MB-231 [4] = test: Induction of apoptosis in human MDA-MB-231 cells assessed as early apoptotic cells at 30 nM after 48 hrs using annexin V-propidium iodide staining by flow cytometry; type: functional
MDA-MB-231 [5] = test: Induction of apoptosis in human MDA-MB-231 cells assessed as late apoptotic cells at 30 nM after 48 hrs using annexin V-propidium iodide staining by flow cytometry; type: functional
MDA-MB-231 [6] = test: Induction of apoptosis in human MDA-MB-231 cells assessed as late apoptotic cells at 1 uM after 48 hrs using annexin V-propidium iodide staining by flow cytometry; type: functional
MDA-MB-231 [7] = test: Induction of apoptosis in human MDA-MB-231 cells assessed as early apoptotic cells at 100 nM after 48 hrs using annexin V-propidium iodide staining by flow cytometry; type: functional
SK-OV-3 = test: Growth inhibition of human SKOV3 cells after 4 days by WST8 assay; type: functional, cell-based; conditions: SK-OV-3, 96 h
MDA-MB-231 [8] = test: cells; conditions: Homo sapiens, MDA-MB-231, 96 h
Description: Growth inhibition of human MDA-MB-231 cells after 4 days by WST-8 assay

Sequence of E3 ubiquitin-protein ligase XIAP (P98170 whole entry): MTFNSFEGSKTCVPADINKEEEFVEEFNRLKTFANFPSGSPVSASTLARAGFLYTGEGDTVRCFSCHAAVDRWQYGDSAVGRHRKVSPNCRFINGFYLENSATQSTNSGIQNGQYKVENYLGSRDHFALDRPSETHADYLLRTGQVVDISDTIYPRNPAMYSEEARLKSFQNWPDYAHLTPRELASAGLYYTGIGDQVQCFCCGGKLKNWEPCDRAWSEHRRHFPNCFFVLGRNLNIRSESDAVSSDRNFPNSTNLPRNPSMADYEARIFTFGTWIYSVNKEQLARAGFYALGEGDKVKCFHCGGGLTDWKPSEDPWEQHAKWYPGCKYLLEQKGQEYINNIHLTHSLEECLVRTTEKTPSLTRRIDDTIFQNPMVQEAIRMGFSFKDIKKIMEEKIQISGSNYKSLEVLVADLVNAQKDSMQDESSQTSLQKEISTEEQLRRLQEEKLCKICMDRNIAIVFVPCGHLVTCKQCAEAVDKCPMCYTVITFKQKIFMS

Ki [1]: > 100000 nM
SMILES: CCC[C@H](N)C(=O)N[C@H]1CC[C@H]2CC[C@@H](C(=O)NCc3ccccc3)N2C1

Ki [1]: 32900 nM
SMILES: CC[C@@H](C(=O)N[C@H]1CCCC[C@H]2CC[C@@H](C(=O)NC(c3ccccc3)c3ccccc3)N2C1=O)N1CCOCC1

Ki [1]: 100 nM
SMILES: C[C@H](N)C(=O)N[C@H]1CCCC[C@H]2CC[C@@H](C(=O)NCc3ccccc3)N2C1=O

IC50 (SK-OV-3): 900 nM
SMILES: CN[C@@H](C)C(=O)N[C@H]1CCCC[C@H]2CC[C@@H](C(=O)NC(c3ccccc3)c3ccccc3)N2C1=O
Activity (MDA-MB-231 [2]): 10% | Activity (MDA-MB-231 [3]): 39% | Activity (MDA-MB-231 [4]): 13% | Activity (MDA-MB-231 [5]): 2% | Activity (MDA-MB-231 [6]): 8% | Activity (MDA-MB-231 [7]): 29%

Ki [1]: 13000 nM | IC50 (MDA-MB-231 [8]): 7000 nM | IC50 (SK-OV-3): > 10000 nM
SMILES: C[C@H](O)C(=O)N[C@H]1CCCC[C@H]2CC[C@@H](C(=O)NC(c3ccccc3)c3ccccc3)N2C1=O

Ki [1]: 60 nM
SMILES: C[C@H](N)C(=O)N[C@H]1CCC[C@H]2CC[C@@H](C(=O)NC(c3ccccc3)c3ccccc3)N2C1=O

Ki [1]: 39 nM | IC50 (MDA-MB-231 [8]): 8000 nM | IC50 (SK-OV-3): > 10000 nM
SMILES: CC[C@H](N)C(=O)N[C@H]1CCCC[C@H]2CC[C@@H](C(=O)NC(c3ccccc3)c3ccccc3)N2C1=O

IC50 (MDA-MB-231 [8]): 410 nM | IC50 (SK-OV-3): 1000 nM
SMILES: CC[C@H](NC)C(=O)N[C@H]1CCCC[C@H]2CC[C@@H](C(=O)NC(c3ccccc3)c3ccccc3)N2C1=O
Activity (MDA-MB-231 [2]): 3% | Activity (MDA-MB-231 [3]): 29% | Activity (MDA-MB-231 [4]): 13% | Activity (MDA-MB-231 [5]): 3% | Activity (MDA-MB-231 [6]): 8% | Activity (MDA-MB-231 [7]): 20%

Ki [1]: 29000 nM
SMILES: CC[C@H](O)C(=O)N[C@H]1CCC[C@H]2CC[C@@H](C(=O)NC(c3ccccc3)c3ccccc3)N2C1=O

Ki [1]: 47 nM
SMILES: CC[C@H](N)C(=O)N[C@H]1CCCC[C@H]2CC[C@@H](C(=O)N[C@@H](c3ccccc3)c3ccc4ccccc4c3)N2C1=O

Ki [1]: 759 nM
SMILES: CC[C@H](N)C(=O)N[C@H]1CCCC[C@H]2CC[C@@H](C(=O)N[C@H](c3ccccc3)c3ccc4ccccc4c3)N2C1=O
